Experimental data as given in patent publication US5244907A, “Carbocyclic carboxylic acid amides and esters of azabicyclic compounds as gastric prokinetic, antiemetic, anxiolytic and antiarrhythmic agents” (A. H. Robins Company, Incorporated, priority 1992, dated 1993).

Assays:
cisplatin-induced emesis = test: Cisplatin-induced emesis in dogs; format: in vivo; conditions: Canis lupus familiaris; 1 mg/kg IV; cisplatin 3.0 mg/kg IV; 5 hours; read-out: Antiemetic: % change in emetic episodes in dogs induced by cisplatin
Protocol: A. Effect of Invention Compounds on Cisplatin-induced Emesis in Dogs
The procedure used to test compounds of the present invention for antiemetic properties is a modification of the method of Gylys et al., Res. Commun. Chem. Pathol. Pharm., 23, 61(1979).
Adult, mongrel unfasted dogs of both sexes are randomly assigned into treatment groups, with each treatment group consisting of four dogs. On the dosing day all dogs are given cisplatin, 3.0 mg/kg, intravenously. Sixty minutes later, the dogs in the control treatment group are given deionized water, 0.1 mL/kg intravenously and dogs receiving test compounds are given the test compound in solution (1 mg/kg, IV). All doses are administered as a solution by means of a syringe and needle, and each dog's emetic episodes are recorded for 5 hours after the administration of cisplatin.
^2 % change in emetic episodes in dogs at 1 mg/kg IV induced by […]

[1] = tested on: gastric emptying of test meal; test: Gastric emptying of a test meal in fasted rats; format: in vivo; conditions: Rattus norvegicus, 1 h; for change in vivo at 10 mg/kg: 10 mg/kg IP; for change in vivo at 9 mg/kg: 9 mg/kg IP (printed 09)
Protocol: B. Effect of Invention Compounds on Gastric Emptying of a Test Meal in Fasted Rats
The procedure used to test compounds of the present invention for gastric motility enhancing activity is that of Droppleman et al., J. Pharmacol. Methods, 4,227(1980).
Each animal is dosed intraperitoneally (9 or 10 mg/kg) with a test compound or control. After 30 minutes each animal is given 3 mL of a methylcellulose-based test meal formulation. Sixty minutes after administration of the test meal, each animal is sacrificed by cervical dislocation, and the stomach is removed and weighed. The stomach is cut open, rinsed and dried, and reweighed. This difference between the full and empty weights (amount of meal remaining in stomach) is subtracted from the weight of the original test meal to determine the meal amount emptied from the stomach during the test period.
^1 % change in gastric emptying of test meal in rats (dose, mg/kg IP)

[2] = tested on: von Bezold-Jarisch reflex evoked by 5-HT (serotonin); test: Antagonism of the von Bezold-Jarisch reflex evoked by 5-HT in anaesthetized rats; format: in vivo; conditions: Rattus norvegicus; 0.0316 mg/kg IV in anesthetized rats; read-out: Antiserotonin: von Bezold-Jarisch reflex % change in serotonin-induced bradycardia
Protocol: F. Antagonism of the von Bezold-Jarisch Reflex
The compounds are evaluated for antagonism of the von Bezold-Jarisch reflex evoked by 5-HT (serotonin) in anaesthetized rats according to the method described in European Patent Application 200-444 (Beecham Group).
Male rats (250-350 g) are anaesthetized with urethane (1.25 g/kg intraperitoneally), and blood pressure and heart rate are recorded as described by Fozard J. R. et al., J. Cardiovasc. Pharmacol. 2, 229-245 (1980). A submaximal dose of 5-HT (usually […]) is given repeatedly by the intravenous route and changes in heart rate quantified. Compounds are given intravenously and the inhibition of the 5-HT evoked response is measured. In addition, the concentration required to reduce the 5-HT evoked response to 50% of the control response (ED50) can be determined.
^3 Von BezoldJarisch reflex % change in serotonininduced bradycardia
at 0.0316 mg/kg IV in anesthesized rats.

canine Purkinje fibers = test: Cellular electrophysiologic effects in canine Purkinje fibers in vitro; format: cell-based, dog (canine); conditions: Canis lupus familiaris, 20 min, 10^-4 M, after 20 min exposure, read-out: increase in action potential duration at 90% repolarization (APD90)
Protocol: G. Measurement of Cellular Electrophysiologic Effects in Canine Purkinje Fibers in Vitro
Dogs (12-18 kg) were anesthetized with sodium pentobarbital (30 mg/kg IV). The heart of each dog was rapidly removed through a right lateral thoracotomy and placed in a chilled, oxygenated Tyrode's solution. Purkinje fibers from the right and left ventricles were excised and mounted in a Lucite chamber. The tissue was superfused at a rate of 10-15 mL/min with Tyrode's solution. The temperature of the superfused Tyrode's was maintained at 37° C. and gassed with 95% oxygen-5% carbon dioxide mixture.
The Purkinje fibers were stimulated (paced at cycle length of 400 to 1000 msec) with a silver bipolar wire electrode placed on the surface of the tissue. Transmembrane action potentials were recorded with a glass capillary microelectrodes filled with 3M KCl. […] The measurements derived from the action potential were Vmax (upstroke velocity), APD50 (action potential duration at 50% repolarization), and APD90 (action potential duration at 90% repolarization) as previously described (Bigger and Mandel, 1970; Wu and Hoffman, 1987). […] Measurements of the action potential parameters were recorded after 20 min of test drug exposure. […] Changes in the action potential measurements produced by the test compound were analyzed for statistical significance using a paired-t test. […]

[3] = tested on: exploratory light/dark behavior; test: Anxiolytic test, exploratory light/dark (mice); format: in vivo; conditions: 10 mg/kg IP, significant increase as compared with the controls (30%)
Protocol: Exploratory Light/Dark (mice)
This method has been described by Young and Johnson (1988) and is a modification of the procedure described by Costall and Naylor (1988). A two compartment light-dark activity monitoring device (Digiscan Model RXYZCM16, Omnitech Electronics Inc., Columbus, Ohio) is used. A 90W light source located 30 cm above the box provides light to the lit portion of the apparatus. Behavioral testing is conducted in a sound-attenuated, darkened room illuminated with red light (25W red bulb) only.
Each animal (mouse) receives a dose or doses of either the test, reference, or control article. The animal is placed at the center of the illuminated area and the behavioral activity tallied over a 5 minute period by use of the Digiscan analyzer. Behavioral variables recorded included: the time spent in the lit and dark areas, the number of rearings in the lit and dark areas, the number of locomotor activity counts in the lit and dark areas, the number of transitions between the lit and dark and lit areas, the latency to make the first transition from the lit area to the dark area, rearing time in the lit and dark areas, locomotor time in the lit and dark areas, and resting time in the lit and dark areas. Appropriate statistical analyses for each measure are performed. […]

Structure (SMILES)	change in vivo at 1 mg/kg (cisplatin-induced emesis) [%]	change in vivo at 10 mg/kg [1] [%]	change in vivo at 9 mg/kg [1] [%]	change in vivo at 0.0316 mg/kg [2] [%]	activation at 100 µM (canine Purkinje fibers) [%]	time spent in the lit area [3] [%]
COc1cc(N)c(Cl)cc1C(=O)NCC12CCCN(CC1)C2 (stereo not drawn) [Example 1, 4-Amino-N-(1-azabicyclo[3.2.1]oct-5ylmethyl)-5-chloro-2-methoxybenzamide]	-76	47				
CNc1cc(OC)c(C(=O)NCC23CCCN(CC2)C3)cc1Cl (stereo not drawn) [Example 2]	-63		62			
COCCOc1cc(N)c(Cl)cc1C(=O)NCC12CCCN(CC1)C2 (stereo not drawn) [Example 3]	-51	31		-74		
COc1cc(N)c(Cl)cc1C(=O)NCC12CCCN(CCC1)C2 [Example 4, 4-Amino-N-(1-azabicyclo[3.3.1]non-5-ylmethyl)-5-chloro-2-methoxybenzamide]	-62	31		-32		
CNc1cc(OC)c(C(=O)NCC23CCCN(CCC2)C3)cc1Cl [Example 5, N-(1-Azabicyclo[3.3.1]non-5-ylmethyl)-5-chloro-2-methoxy-4-(methylamino)benzamide]	-71		58			
COCCOc1cc(N)c(Cl)cc1C(=O)NCC12CCCN(CCC1)C2 [Example 6, 4-Amino-N-(1-azabicyclo[3.3.1]non-5-ylmethyl)-5-chloro-2-(2-methoxyethoxy)benzamide]				-30		
Cn1cc(C(=O)NCC23CCCN(CCC2)C3)c2ccccc21 [Example 8]	-49					
CS(=O)(=O)Nc1ccc(C(=O)NCC23CCCN(CCC2)C3)cc1 [Example 9, N-(1-Azabicyclo[3.3.1]non-5-ylmethyl)-4-[(methylsulfonyl)amino]benzamide]					8.5	
COc1cc(N)c(Cl)cc1C(=O)OCC12CCCN(CC1)C2 (stereo not drawn) [Example 10, 4-Amino-5-chloro-2-methoxybenzoic acid 1-azabicyclo[3.2.1]oct-5-ylmethyl ester]	-82	47		-82		
O=C(OCC12CCCN(CC1)C2)c1c[nH]c2ccccc12 (stereo not drawn) [Example 11, 1H-Indole-3-carboxylic acid 1-azabicyclo[3.2.1]oct-5-ylmethyl ester]	-85			-86		
Cn1cc(C(=O)OCC23CCCN(CC2)C3)c2ccccc21 (stereo not drawn) [Example 12, 1-Methyl-1H-indole-3-carboxylic acid 1-azabicyclo[3.2.1]oct-5-ylmethyl ester]				-81		58
COc1cc(N)c(Cl)cc1C(=O)OCC12CCCN(CCC1)C2 [Example 13, 4-Amino-5-chloro-2-methoxybenzoic acid 1-azabicyclo[3.3.1]non-5-ylmethyl ester]	-50		41	-23		
O=C(OCC12CCCN(CCC1)C2)c1c[nH]c2ccccc12 [Example 14, 1H-Indole-3-carboxylic acid 1-azabicyclo[3.3.1]non-5-ylmethyl ester]			10	-0.3		
Cn1nc(C(=O)OCC23CCCN(CC2)C3)c2ccccc21 (stereo not drawn) [Example 15, 1-Methyl-1H-indazole-3-carboxylic acid 1-azabicyclo[3.2.1]oct-5-ylmethyl ester]	-93	31		-72		
